Test results: US20140315972A1, “RS)-2-(2-oxo-4-phenylpyrrolidin-1-yl)acetamide compound having modulatory activity with a commensurate effect, pharmaceutical substance (variants) and its application, composition (variants) thereof” (priority 2011, published 2014)
Marks after values point to notes of the source that are not given here.

Columns and labels:
rats = experiment: Scopolamine-induced CRPA amnesia, preventive and therapeutic use, adult male rats; assay type: in vivo
Description: These findings are of great importance. In clinic, medications have to be prescribed more often already in the midst of disorders.

Solubility = assay type: physicochemical
Description: The crystalline powder of the Phenotropil substances is not volatile, has white, rarely white to slightly yellowish or slightly cream color, bitter taste (bitter taste that disappears in the mouth rather quickly after dissolution, leaving no unpleasant sensations). In the related products, the bitter taste persists. The Compounds are sparingly soluble in water and saline, moderately soluble in 96.0% alcohol and chloroform. Readily soluble in water and saline under heating, but the solutions are not stable during cooling and storage under normal conditions (not more than 2 hours, which is acceptable for the extemporaneous preparations and research), moderately soluble in 5.0% glucose solution, dissolve well in the presence of solubilizers and emulsifiers. Tween80 and cyclodextrins increase solubility in water, especially Tween80, while cyclodextrins have limitations by concentration. Sterile 0.001-3% solutions of Phenotropil in the presence of cyclodextrin or Tween (water for injection, Phenotropil, cyclodextrin (or Tween solution) were thoroughly stirred for 30 minutes, filtered, dispensed into ampoules of neutral glass, the ampoules were sealed and sterilized for 15 minutes at 120° C.). Sterile solutions are storage stable for at least 12 months. The ultimate shelf life is not specified; the samples are being stored.

mice [1] = experiment: Open field test; assay type: in vivo; details: for Distance covered during 1st min (horizontal motor activity) / Distance during 2nd min (horizontal motor activity) / Distance during 3rd min (horizontal motor activity) / Explorations during 2nd min / Explorations during 3rd min / Number of explorations (holes) during 1st min / Number of washings during 1st min / Total distance at 3 min (horizontal motor activity) / Total number of explorations at 3 min / Total number of visits to the center at 3 min / Total number of washings at 3 min / Visits to the center during 1st min / Visits to the center during 2nd min / Visits to the center during 3rd min / Washings during 2nd min / Washings during 3rd min / vertical motor activity, 1st min (Distance covered) / vertical motor activity, 2nd min / vertical motor activity, 3rd min / vertical motor activity, total at 3 min: mice
Protocol: Study of the effect of Phenotropil (100, 200, 300 mg/kg) on motor activity and exploratory behavior by the open field test on mice (16-24 g) in comparison with olanzapine (1 mg/kg) is shown in Tables 5-5.4. Olanzapine at higher doses has sedative activity, so for comparison with Phenotropil, the drug was used only at a dose of 1 mg/kg. The drugs and distilled water to control groups were injected intraperitoneally 40 minutes prior to the study. […] This indicates the ability of the drug to reversibility, unlike olanzapine.

mice [2] = experiment: Hyperkinesis induced by 5-oxytryptophan (negative symptoms of schizophrenia); assay type: in vivo; details: for Number of shakings: mice, 5-oxytryptophan 300 mg/kg i.p.
Protocol: Studies have been conducted on white outbred male mice (18-24 g), in comparison with the olanzapine (Zyprexa) with intraperitoneal injection.
Phenotropil in all studied doses reduced hyperkinesia (head shakings): at doses of 100 mg/kg—by 88%, at 200 mg/kg—by 87%, and at 300 mg/kg—by 89%. […] Effect of Phenotropil on serotonergic system requires more detailed testing and studies of lower doses, since there is no reason to exclude neuroleptic activity in this test. Preventive or proactive (protective) use of lower doses may be appropriate also in dopaminergic pathology.

[3] = 100.0 mg/kg before training + scopolamine
[4] = 100.0 mg/kg during training and scopolamine

## NC(=O)CN1CC(c2ccccc2)CC1=O (racemic) [Compound 1, (RS)-2-(2-oxo-4-phenylpyrrolidine-1-yl)acetamide]
rats; [3]
  % of animals that did not enter into the dark chamber: 80% *
  LP Pre-training: 17.0 ± 2.9
  LP of the training reproduction: 94.1 ± 8.7
  Number of animals that did not enter into the dark chamber: 16/20
  Time spent in the dark chamber: 49.9 ± 6.9
rats; [4]
  % of animals that did not enter into the dark chamber: 70% *
  LP Pre-training: 18.4 ± 3.3
  LP of the training reproduction: 91.1 ± 10.1
  Number of animals that did not enter into the dark chamber: 14/20
  Time spent in the dark chamber: 63.4 ± 12.5
Solubility
  solubility in 96% alcohol and chloroform: moderately soluble
  solubility in water (and saline): sparingly soluble in water
Mice [1]; 100 mg/kg
  increase of horizontal locomotor activity: 112.2%
  increase of number of visits to the center vs control: 111%
  increase of total exploratory behavior index: 50%
  increase of total vertical locomotor activity: 237.5%
  reduction of total index of washes vs control: 25%
Mice [1]; 200 mg/kg
  decrease of total exploratory behavior index: 32%
  increase of horizontal locomotor activity: 151.8%
  increase of number of visits to the center vs control: 155%
  vertical activity over three minutes vs control: −6.3%
Mice [1]; 300 mg/kg
  increase of horizontal locomotor activity: 99.5%
  increase of number of visits to the center vs control: 133%
  increase of total index of explored holes: 27%
  number of rearings at the first minute vs control: −75%
  total number of rearings for 3 minutes vs control: +56%
Mice [1]; 100 mg/kg i.p.
  Distance covered during 1st min (horizontal motor activity): 23.7 ± 5*^
  Distance during 2nd min (horizontal motor activity): 22.5 ± 3.1
  Distance during 3rd min (horizontal motor activity): 44 ± 10.7
  Explorations during 2nd min: 1.5 ± 0.4
  Explorations during 3rd min: 1.3 ± 0.7
  Number of explorations (holes) during 1st min: 0.5 ± 0.3
  Number of washings during 1st min: 0.2 ± 0.2
  Total distance at 3 min (horizontal motor activity): 90.2 ± 8.7
  Total number of explorations at 3 min: 3.3 ± 0.9
  Total number of visits to the center at 3 min: 3.9 ± 0.6
  Total number of washings at 3 min: 0.3 ± 0.2^
  Visits to the center during 1st min: 0.7 ± 0.5
  Visits to the center during 2nd min: 2.2 ± 0.8
  Visits to the center during 3rd min: 1 ± 0.5
  Washings during 2nd min: 0.1 ± 0.2^
  Washings during 3rd min: 0 ± 0
  vertical motor activity, 1st min (Distance covered): 2.3 ± 1.1
  vertical motor activity, 2nd min: 3.8 ± 1.7
  vertical motor activity, 3rd min: 4.7 ± 1.6
  vertical motor activity, total at 3 min: 10.8 ± 4.2
Mice [1]; 200 mg/kg i.p.
  Distance covered during 1st min (horizontal motor activity): 31.7 ± 2.8
  Distance during 2nd min (horizontal motor activity): 41.8 ± 7.0
  Distance during 3rd min (horizontal motor activity): 33.5 ± 4.7
  Explorations during 2nd min: 0.8 ± 0.5
  Explorations during 3rd min: 0.5 ± 0.5
  Number of explorations (holes) during 1st min: 0.2 ± 0.2
  Number of washings during 1st min: 0 ± 0
  Total distance at 3 min (horizontal motor activity): 107 ± 11.5
  Total number of explorations at 3 min: 1.5 ± 0.9
  Total number of visits to the center at 3 min: 4.7 ± 0.7
  Visits to the center during 1st min: 0.3 ± 0.2
  Visits to the center during 2nd min: 2.7 ± 0.4
  Visits to the center during 3rd min: 1.7 ± 0.4
  Washings during 2nd min: 0 + 0 *
  Washings during 3rd min: 0 ± 0
  vertical motor activity, 1st min (Distance covered): 0 ± 0
  vertical motor activity, 2nd min: 1.3 ± 0.7
  vertical motor activity, 3rd min: 1.7 ± 0.7
  vertical motor activity, total at 3 min: 3.0 ± 1.3
Mice [1]; 300 mg/kg i.p.
  Distance covered during 1st min (horizontal motor activity): 29.7 ± 12.3
  Distance during 2nd min (horizontal motor activity): 27.2 ± 10.2
  Distance during 3rd min (horizontal motor activity): 28 ± 6.4
  Explorations during 2nd min: 1.5 ± 0.8
  Explorations during 3rd min: 1.0 ± 0.8
  Number of explorations (holes) during 1st min: 0.3 ± 0.2
  Number of washings during 1st min: 0.2 ± 0.2
  Total distance at 3 min (horizontal motor activity): 84.8 ± 28.0
  Total number of explorations at 3 min: 2.8 ± 1.4
  Total number of visits to the center at 3 min: 4.2 ± 0.8
  Total number of washings at 3 min: 0.2 ± 0.2
  Visits to the center during 1st min: 1.2 ± 0.4
  Visits to the center during 2nd min: 1.3 ± 0.5
  Visits to the center during 3rd min: 1.7 ± 0.5
  Washings during 2nd min: 0 ± 0
  Washings during 3rd min: 0 ± 0
  vertical motor activity, 1st min (Distance covered): 0.3 ± 0.2
  vertical motor activity, 2nd min: 2 ± 1.2
  vertical motor activity, 3rd min: 2.7 ± 1.1
  vertical motor activity, total at 3 min: 5.0 ± 1.8
Mice [2]; 100 mg/kg
  reduction of hyperkinesia (head shakings): 88%
  Number of shakings: 1.4 ± 0.5
Mice [2]; 200 mg/kg
  reduction of hyperkinesia (head shakings): 87%
  Number of shakings: 1.5 ± 0.8
Mice [2]; 300 mg/kg
  reduction of hyperkinesia (head shakings): 89%
  Number of shakings: 1.2 ± 0.5
